Assay results: PubChem BioAssay AID1963860 (Molecular Pharmacology Branch, DTP, NCI, 2024)
The source made the active and inactive calls. How the source made its calls: active means viability on the fitted dose curve at most 10% of control; inactive means the rest.

System: CN0375-F725-PDC KRAS spheroid viability
Assay: Anticancer human tumor CN0375-F725-PDC patient-derived colon carcinoma cell line growth inhibition [KRAS2]
Conditions: spheroids with HUVEC and MSC; for IC50: curve of first compound; for viability, T/C: stronger effect = lower value
Outline: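 KRAS-mutant tumor cells were grown as spheroids with HUVEC endothelial cells and human MSCs as stroma. Targeted agents were tested alone and with KRAS pathway inhibitors. Doses started at or near clinical Cmax, or 10 microM, descending half-log.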

[1] = second compound 0.1 µM, first compound 0.00316 µM
[2] = second compound 0.1 µM, first compound 0.01 µM
[3] = second compound 0.1 µM, first compound 0.0316 µM
[4] = second compound 0.1 µM, first compound 0.1 µM
[5] = second compound 0.1 µM, first compound 0.316 µM
[6] = second compound 0.1 µM, first compound 1 µM
[7] = second compound 0.316 µM, first compound 0.00316 µM
[8] = second compound 0.316 µM, first compound 0.01 µM
[9] = second compound 0.316 µM, first compound 0.0316 µM
[10] = second compound 0.316 µM, first compound 0.1 µM
[11] = second compound 0.316 µM, first compound 0.316 µM
[12] = second compound 0.316 µM, first compound 1 µM
[13] = second compound 1 µM, first compound 0.00316 µM
[14] = second compound 1 µM, first compound 0.01 µM
[15] = second compound 1 µM, first compound 0.0316 µM
[16] = second compound 1 µM, first compound 0.1 µM
[17] = second compound 1 µM, first compound 0.316 µM
[18] = second compound 1 µM, first compound 1 µM
[19] = second compound 3.16 µM, first compound 0.00316 µM
[20] = second compound 3.16 µM, first compound 0.01 µM
[21] = second compound 3.16 µM, first compound 0.0316 µM
[22] = second compound 3.16 µM, first compound 0.1 µM
[23] = second compound 3.16 µM, first compound 0.316 µM
[24] = second compound 3.16 µM, first compound 1 µM
[25] = second compound 10 µM, first compound 0.0316 µM
[26] = second compound 10 µM, first compound 0.1 µM
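Further: spheroids exposed to agents for 7 days.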

Question: What does the source list for `CCN1CCN(Cc2ccc(Nc3ncc(F)c(-c4cc(F)c5nc(C)n(C(C)C)c5c4)n3)nc2)CC1` + C=CC(=O)N1CCN(c2nc(OCC3CCCN3C)nc3c2CCN(c2cccc4cccc(C)c24)C3)CC1CC#N?
Answer: IC50 (second compound 0.0316 µM): > 1000 nM; IC50 (second compound 0.1 µM): > 1000 nM; IC50 (second compound 0.316 µM): > 1000 nM; IC50 (second compound 1 µM): > 1000 nM; IC50 (second compound 3.16 µM): < 3.16 nM; viability, T/C (second compound 0.0316 µM, first compound 0.00316 µM): 110%; viability, T/C (second compound 0.0316 µM, first compound 0.01 µM): 94.4%; viability, T/C (second compound 0.0316 µM, first compound 0.0316 µM): 90.5%; viability, T/C (second compound 0.0316 µM, first compound 0.1 µM): 91.8%; viability, T/C (second compound 0.0316 µM, first compound 0.316 µM): 111%; viability, T/C (second compound 0.0316 µM, first compound 1 µM): 99.8%; viability, T/C [1]: 103%; viability, T/C [2]: 96.8%; viability, T/C [3]: 88.1%; viability, T/C [4]: 94.6%; viability, T/C [5]: 104%; viability, T/C [6]: 91.2%; viability, T/C [7]: 104%; viability, T/C [8]: 99.7%; viability, T/C [9]: 85.5%; viability, T/C [10]: 89.4%; viability, T/C [11]: 95.2%; viability, T/C [12]: 91.5%; viability, T/C [13]: 95.4%; viability, T/C [14]: 99.6%; viability, T/C [15]: 86.9%; viability, T/C [16]: 83.9%; viability, T/C [17]: 85.1%; viability, T/C [18]: 89.8%; viability, T/C [19]: 34.7%; viability, T/C [20]: 31.3%; viability, T/C [21]: 17.9%; viability, T/C [22]: 15.3%; viability, T/C [23]: 20.3%; viability, T/C [24]: 1.83%

Question: With `CN(C)C/C=C/C(=O)Nc1cc2c(Nc3ccc(F)c(Cl)c3)ncnc2cc1O[C@H]1CCOC1` + CNCc1ccccc1-c1csc(C(C)Nc2nc(C)nc3cc(OC)c(OC)cc23)c1 as the compound, how does the IC50 (second compound 0.1 µM) read?
Answer: > 100 nM

Question: And the IC50 (second compound 0.316 µM)?
Answer: > 100 nM

Question: What about the IC50 (second compound 1 µM) of the same compound?
Answer: 77.3 nM

Question: And the IC50 (second compound 3.16 µM)?
Answer: 1.8 nM

Question: And the IC50 (second compound 10 µM)?
Answer: < 0.316 nM

Question: And the viability, T/C (second compound 0.1 µM, first compound 0.000316 µM)?
Answer: 97.1%

Question: What about the viability, T/C (second compound 0.1 µM, first compound 0.001 µM) of the same compound?
Answer: 95.9%

Question: What about the viability, T/C [1] of the same compound?
Answer: 83.1%

Question: And the viability, T/C [2]?
Answer: 86.4%

Question: And the viability, T/C [3]?
Answer: 78.4%

Question: And the viability, T/C [4]?
Answer: 74.2%

Question: What about the viability, T/C (second compound 0.316 µM, first compound 0.000316 µM) of the same compound?
Answer: 94.8%

Question: And the viability, T/C (second compound 0.316 µM, first compound 0.001 µM)?
Answer: 88.3%

Question: What about the viability, T/C [7] of the same compound?
Answer: 78.3%

Question: And the viability, T/C [8]?
Answer: 74.6%

Question: What about the viability, T/C [9] of the same compound?
Answer: 76.1%

Question: And the viability, T/C [10]?
Answer: 70.5%

Question: And the viability, T/C (second compound 1 µM, first compound 0.000316 µM)?
Answer: 76.3%

Question: And the viability, T/C (second compound 1 µM, first compound 0.001 µM)?
Answer: 67.6%

Question: What about the viability, T/C [13] of the same compound?
Answer: 53.1%

Question: And the viability, T/C [14]?
Answer: 54.8%

Question: And the viability, T/C [15]?
Answer: 60.4%

Question: What about the viability, T/C [16] of the same compound?
Answer: 43.6%

Question: And the viability, T/C (second compound 3.16 µM, first compound 0.000316 µM)?
Answer: 99.2%

Question: What about the viability, T/C (second compound 3.16 µM, first compound 0.001 µM) of the same compound?
Answer: 102%

Question: And the viability, T/C [19]?
Answer: 0.46%

Question: What about the viability, T/C [20] of the same compound?
Answer: 0.32%

Question: What about the outcome [21] of the same compound?
Answer: active

Question: And the viability, T/C [22]?
Answer: 3.19%

Question: What about the viability, T/C (second compound 10 µM, first compound 0.000316 µM) of the same compound?
Answer: 0.26%

Question: What about the viability, T/C (second compound 10 µM, first compound 0.001 µM) of the same compound?
Answer: 0.23%

Question: What about the viability, T/C (second compound 10 µM, first compound 0.00316 µM) of the same compound?
Answer: 0.35%

Question: And the viability, T/C (second compound 10 µM, first compound 0.01 µM)?
Answer: 0.73%

Question: And the viability, T/C [25]?
Answer: 0.29%

Question: And the viability, T/C [26]?
Answer: 0.22%

Question: For `Cn1nccc1Nc1nccc(-c2cc3c(s2)C(C)(C)N(CCN2CCOCC2)C3=O)n1` + CNCc1ccccc1-c1csc(C(C)Nc2nc(C)nc3cc(OC)c(OC)cc23)c1, which IC50 (second compound 0.1 µM) is on record?
Answer: 2790 nM

Question: What about the IC50 (second compound 0.316 µM) of the same compound?
Answer: 1180 nM

Question: And the IC50 (second compound 1 µM)?
Answer: 77.7 nM

Question: What about the IC50 (second compound 3.16 µM) of the same compound?
Answer: < 31.6 nM

Question: What about the IC50 (second compound 10 µM) of the same compound?
Answer: < 31.6 nM

Question: What about the viability, T/C [3] of the same compound?
Answer: 98%

Question: What about the viability, T/C [4] of the same compound?
Answer: 85.6%

Question: What about the viability, T/C [5] of the same compound?
Answer: 71.1%

Question: What about the viability, T/C [6] of the same compound?
Answer: 61.9%

Question: What about the viability, T/C (second compound 0.1 µM, first compound 3.16 µM) of the same compound?
Answer: 48.8%

Question: What about the viability, T/C (second compound 0.1 µM, first compound 10 µM) of the same compound?
Answer: 37.2%

Question: What about the viability, T/C [9] of the same compound?
Answer: 86.5%

Question: What about the viability, T/C [10] of the same compound?
Answer: 80.8%

Question: What about the viability, T/C [11] of the same compound?
Answer: 64.7%

Question: What about the viability, T/C [12] of the same compound?
Answer: 53%

Question: What about the viability, T/C (second compound 0.316 µM, first compound 3.16 µM) of the same compound?
Answer: 39.4%

Question: And the viability, T/C (second compound 0.316 µM, first compound 10 µM)?
Answer: 33.2%

Question: And the viability, T/C [15]?
Answer: 57.4%

Question: And the viability, T/C [16]?
Answer: 53%

Question: What about the viability, T/C [17] of the same compound?
Answer: 25.3%

Question: What about the viability, T/C [18] of the same compound?
Answer: 25.9%

Question: And the viability, T/C (second compound 1 µM, first compound 3.16 µM)?
Answer: 7.98%

Question: What about the viability, T/C (second compound 1 µM, first compound 10 µM) of the same compound?
Answer: 3.51%

Question: And the viability, T/C [21]?
Answer: 0.61%

Question: What about the viability, T/C [22] of the same compound?
Answer: 0.29%

Question: What about the viability, T/C [23] of the same compound?
Answer: 0.39%

Question: And the viability, T/C [24]?
Answer: 0.2%

Question: What about the viability, T/C (second compound 3.16 µM, first compound 3.16 µM) of the same compound?
Answer: 0.2%

Question: What about the viability, T/C (second compound 3.16 µM, first compound 10 µM) of the same compound?
Answer: 0.21%

Question: What about the viability, T/C [25] of the same compound?
Answer: 0.28%

Question: And the viability, T/C [26]?
Answer: 0.25%

Question: What about the viability, T/C (second compound 10 µM, first compound 0.316 µM) of the same compound?
Answer: 0.17%

Question: And the viability, T/C (second compound 10 µM, first compound 1 µM)?
Answer: 0.26%

Question: What about the viability, T/C (second compound 10 µM, first compound 3.16 µM) of the same compound?
Answer: 1.05%

Question: What about the viability, T/C (second compound 10 µM, first compound 10 µM) of the same compound?
Answer: 0.49%
